Experimental data published in patent publication US20070179181A1, “Treatment of inflammatory disorders and pain using beta-aminoalcohols” (priority 2004, published 2007).

Experiments:
[1] = system: rat adjuvant model of arthritis; experiment: Rat adjuvant assay (model of arthritis); assay type: in vivo, Wistar rats
Experimental: Rat Adjuvant Assay Male Wistar rats (180 to 200 g) were inoculated by subplantar injection of freund's adjuvant (suspension of Mycobacterium butyricum in mineral oil) into the right paw at day 0. Sham inoculations were injected in the same way with 0.9% saline in matched Male Wistar rats. On day 2 animals were weighed. On days 3, 4, 7, 9 and 11 animals were weighed and both their right and left hind paws were measure by plethsymometry by submerging the paw up to the tibiotarsal joint. On day 11, rats with left hind paw volumes increased by 20% were selected for continuance in the study. On the same day continuance rats were administered test article orally (10 ml/kg in distilled water) and from then on once a day until the completion of the study. Left and right hind paw volumes were measured on days 11, 14, 15, 16, 18 and 21.

alpha1 adrenoceptor = experiment: Alpha1 adrenoceptor binding affinity (3H-prazosin, rat brain homogenate); set-up: species or system Wistar rats; settings: radioligand 3H-prazosin 0.25 nM
Experimental: (§1) Adrenoceptor Binding Affinity Brains from Wistar rats were homogenised and incubated with test article (over a concentration range) and the radioligand 3H-prazosin (0.25 nM) for 30 minutes at 25° C., in a 50 mM Tris-HCl, 0.1% ascorbic acid, 10 μM pargyline incubation buffer. After washing, binding was measured by scintillation counting. LPS Mouse Assay

TNFα = experiment: LPS mouse assay, serum TNFα; assay type: in vivo, Balb C ByJ mice; settings: LPS-challenged mouse
Experimental: as §1, with “Brains” for “Adrenoceptor Binding Affinity Brains”
7 week old Balb C ByJ mice (24-28 g) were administered, either by i.p. (5 ml/kg) or oral (10 ml/kg) administration, with vehicle or test article. 30 minutes later these animals were challenged with an intraperitoneal injection of 1 mg/kg LPS. 2 hours after LPS challenge blood samples were collected under light isoflurane anaesthesia into normal tubes by retro-orbital puncture. Samples were allowed to clot at room temperature and then spun at 6000 g for 3 min at 4° C. Serum was stored at −20° C. until use. Serum TNFa and IL-10 levels were analysed in duplicate by ELISA technique.

Q: Which “efficacy in rat adjuvant model of arthritis” value ([1]; 30 mg/kg) does the source give for `CC(CCc1ccccc1)NCC(O)c1ccc(O)c(C(N)=O)c1` (stereo not shown) [labetalol] here?
A: Pronounced (and similar) efficacy

Q: And the “efficacy in rat adjuvant model of arthritis” value ([1]; 100 mg/kg)?
A: Pronounced (and similar) efficacy

Q: How did the Alpha1 affinity (alpha1 adrenoceptor) turn out when `CC(C(O)c1ccc(O)cc1)N1CCC(Cc2ccccc2)CC1` (stereo not drawn) [threo (−), Ifenprodil] was run?
A: 439 nM

Q: With `CC(C(O)c1ccc(O)cc1)N1CCC(Cc2ccccc2)CC1` (stereo not drawn) [erythro (−), Ifenprodil] as the compound, how does the Alpha1 affinity (alpha1 adrenoceptor) read?
A: 482 nM

Q: For `CC(C(O)c1ccc(O)cc1)N1CCC(Cc2ccccc2)CC1` (stereo not drawn) [threo (+), Ifenprodil], which Alpha1 affinity (alpha1 adrenoceptor) is on record?
A: 2160 nM

Q: How did the Alpha1 affinity (alpha1 adrenoceptor) turn out when `CC(C(O)c1ccc(O)cc1)N1CCC(Cc2ccccc2)CC1` (stereo not drawn) [erythro (+), Ifenprodil] was run?
A: 63 nM

Q: Which “LPS-induced systemic TNFα release in mouse blood” value (TNFα) does the source give for `CC(NCCc1ccc(O)cc1)C(O)c1ccc(O)cc1` (stereo not shown) [ritodrine] here?
A: cytokine modulatory activity
